# Read-outs that look alike come from different tables or passages of the source.
# Target: Human PDE9 (PDE9A2) (Homo sapiens (Human), UniProt O76083)
# Test: PDE9 IMAP fluorescence polarization (FP) inhibition assay
# Type: biochemical
# [1] = apparent inhibition constant, FAM-cGMP substrate 50 nM, room temperature, read-out: PDE9 IMAP Ki
# [2] = read-out: PDE9 IMAP Ki, apparent inhibition constant, FAM-cGMP substrate 50 nM, room temperature
# Chain of Human PDE9 (PDE9A2) (O76083 other isoform, or with tags, fused parts or gaps): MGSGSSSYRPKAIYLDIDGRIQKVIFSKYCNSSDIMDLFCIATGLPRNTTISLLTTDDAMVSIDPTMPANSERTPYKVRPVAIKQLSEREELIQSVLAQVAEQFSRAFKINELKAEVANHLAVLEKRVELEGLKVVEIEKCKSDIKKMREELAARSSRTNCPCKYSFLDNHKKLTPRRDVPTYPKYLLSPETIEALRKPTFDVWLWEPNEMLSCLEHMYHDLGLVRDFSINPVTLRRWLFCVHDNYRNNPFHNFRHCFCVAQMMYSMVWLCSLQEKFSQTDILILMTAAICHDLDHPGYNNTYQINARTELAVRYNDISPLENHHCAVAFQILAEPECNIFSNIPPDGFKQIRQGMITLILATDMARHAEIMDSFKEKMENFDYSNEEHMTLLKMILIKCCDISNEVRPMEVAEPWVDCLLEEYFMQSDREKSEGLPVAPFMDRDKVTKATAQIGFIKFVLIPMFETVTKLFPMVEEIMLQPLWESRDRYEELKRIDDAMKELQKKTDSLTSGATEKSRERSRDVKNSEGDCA
SMILES,Ki [1],Ki,further results
"CC(c1cncc(F)c1)n1nc(C#N)c2c(=O)[nH]c(C3CCC3c3ncccn3)nc21 (centres unmarked) [Example 66, 1-(1-(5-fluoropyridin-3-yl)ethyl)-4-oxo-6-(2-(pyrimidin-2-yl)cyclobutyl)-4,5-dihydro-1H-pyrazolo[3,4-d]pyrimidine-3-carbonitrile]",> 67.5 nM,–,–
"CC(c1cncc(F)c1)n1nc(C#N)c2c(=O)[nH]c(C3CCC3c3ncccn3)nc21 (single isomer, unassigned) [Example 65, 1-(1-(5-fluoropyridin-3-yl)ethyl)-4-oxo-6-(2-(pyrimidin-2-yl)cyclobutyl)-4,5-dihydro-1H-pyrazolo[3,4-d]pyrimidine-3-carbonitrile]",–,–,Ki [2]: > 67.5 nM
"CC(c1cnn(C)c1)n1nc(C#N)c2c(=O)[nH]c(C3CCC3c3ncccn3)nc21 (single isomer, unassigned) [Example 69, 1-(1-(1-methyl-1H-pyrazol-4-yl)ethyl)-4-oxo-6-(2-(pyrimidin-2-yl)cyclobutyl)-4,5-dihydro-1H-pyrazolo[3,4-d]pyrimidine-3-carbonitrile]",–,–,Ki [2]: > 67.5 nM
"CC(c1cnn(C)c1)n1nc(C#N)c2c(=O)[nH]c(C3CCC3c3ncccn3)nc21 (single isomer, unassigned) [Example 68, 1-(1-(1-methyl-1H-pyrazol-4-yl)ethyl)-4-oxo-6-(2-(pyrimidin-2-yl)cyclobutyl)-4,5-dihydro-1H-pyrazolo[3,4-d]pyrimidine-3-carbonitrile]",–,> 67.5 nM,–
"CC(c1cnn(C)c1)n1nc(C#N)c2c(=O)[nH]c(C3CCC3c3ncccn3)nc21 (centres unmarked) [Example 71, 1-(1-(1-methyl-1H-pyrazol-4-yl)ethyl)-4-oxo-6-(2-(pyrimidin-2-yl)cyclobutyl)-4,5-dihydro-1H-pyrazolo[3,4-d]pyrimidine-3-carbonitrile]",–,> 67.5 nM,–
"C[C@H](c1ccc(C(F)(F)F)nc1)n1nc(C#N)c2c(=O)[nH]c([C@@H]3CC[C@H]3c3nc(C(F)F)cc(C(F)F)n3)nc21 [Example 116, 6-((1R,2R)-2-(4,6-bis(difluoromethyl)pyrimidin-2-yl)cyclobutyl)-4-oxo-1-((R)-1-(6-(trifluoromethyl)-pyridin-3-yl)ethyl)-4,5-dihydro-1H-pyrazolo[3,4-d]pyrimidine-3-carbonitrile]",8.3 nM,–,–
"CC(c1cncc(F)c1)n1nc(C#N)c2c(=O)[nH]c(C3CCC3c3ncccn3)nc21 (single isomer, unassigned) [Example 64, 1-(1-(5-fluoropyridin-3-yl)ethyl)-4-oxo-6-(2-(pyrimidin-2-yl)cyclobutyl)-4,5-dihydro-1H-pyrazolo[3,4-d]pyrimidine-3-carbonitrile]",–,> 67.5 nM,–
"CC(C1CCOCC1)n1nc(C#N)c2c(=O)[nH]c(C3CCC3c3ncc(F)cn3)nc21 (centres unmarked) [Example 85, 6-(2-(5-fluoropyrimidin-2-yl)cyclobutyl)-4-oxo-1-(1-(tetrahydro-2H-pyran-4-yl)ethyl)-4,5-dihydro-1H-pyrazolo[3,4-d]pyrimidine-3-carbonitrile]",> 607 nM,–,–
